# Entries after “also recorded” stand apart in the source; their conditions may differ.
# Legend:
# 60 kd oncofetal protein [1] = settings: rat, in vivo; for Plasma concentration of the 60 kd protein at 21 days post-treatment with PAH: ip
# 60 kd oncofetal protein [2] = assay: effect of β-glucuronidase inhibitors on carcinogen induction of the 60 kd factor in plasma (cell-free RNA transport assay); assay type: in vivo, rat; settings: rat, in vivo
# bladder cancer = settings: dog, in vivo; cited from earlier work
# serum β-glucuronidase = molecular target: T1, serum β-glucuronidase (Rattus norvegicus, UniProt P06760); assay: in vivo; assay type: in vivo; settings: rat, in vivo
# T1 sequence (P06760 23-648): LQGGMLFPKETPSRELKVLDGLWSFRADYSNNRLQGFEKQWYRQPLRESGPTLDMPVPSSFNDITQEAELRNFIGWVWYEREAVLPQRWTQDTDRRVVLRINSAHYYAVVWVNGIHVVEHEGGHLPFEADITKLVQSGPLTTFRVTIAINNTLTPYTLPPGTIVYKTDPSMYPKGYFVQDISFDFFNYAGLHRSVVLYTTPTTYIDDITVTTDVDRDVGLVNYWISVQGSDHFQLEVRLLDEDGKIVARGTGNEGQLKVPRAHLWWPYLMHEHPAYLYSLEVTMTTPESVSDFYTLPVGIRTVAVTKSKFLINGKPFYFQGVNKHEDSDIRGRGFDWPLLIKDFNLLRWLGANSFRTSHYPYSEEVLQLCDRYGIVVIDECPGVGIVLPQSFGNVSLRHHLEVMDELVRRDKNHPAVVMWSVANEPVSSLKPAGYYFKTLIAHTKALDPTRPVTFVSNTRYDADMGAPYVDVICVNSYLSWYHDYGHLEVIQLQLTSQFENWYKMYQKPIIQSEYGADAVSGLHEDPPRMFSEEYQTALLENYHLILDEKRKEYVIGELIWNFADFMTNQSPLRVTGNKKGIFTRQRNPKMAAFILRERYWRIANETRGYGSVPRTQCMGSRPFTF
# Procedure: GL was synthesized and microencapsulated to give sustained-release GL (EGL), by an established procedure used to microencapsulate ascorbic acid, as reported in Samejima, M. et al., Chem. Pharm. Bull., (Tokyo) 1982, 30:2894-2899. In this procedure, the GL as a fine powder is added to a stirred mixture of cyclohexane, polyisobutylene as coacervation-inducing agent and ethylcellulose as wall-forming material. The addition of GL is at 78° C., then phase separation is induced by lowering the temperature first to 40° C., then to 25° C. The microcapsules, which have thick walls, are washed with cyclohexane and dried. […] DAGDL, calcium D-glucarate (CGT), and potassium hydrogen D-glucarate (PGT) were synthesized. For comparison of efficacy of the inhibitors, 1,5 mmoles/kg (GL, EGL or DAGDL) or 4.5 mmoles/kg (CGT or PGT) of the inhibitor in 1.0 ml of sesame oil or vehicle only (controls) was administered to rats by stomach tube at zero time. Blood samples were obtained from different rats by cardiac puncture under ether anesthesia. The serum was prepared and assayed for β-glucuronidase activity using a commerical diagnostic kit sold by Sigma Chemical Company, St. Louis, MO. The assay is based on the hydrolysis of phenolphthalein-glucuronide and quantitation of phenolphthalein in alkaline medium at […]. For tests of anti-carcinogencity, the inhibitors were administered by stomach tube in 1.0 ml of sesame oil 30 minutes before and again at 2.5 hours after the carcinogen, for DAGDL, or 3 hours and 30 minutes before the carcinogen, for EGL, CGT, and PGT. The controls received sesame oil only by stomach tube.
# At the time periods indicated above blood samples were obtained from rats under ether aneathesia by cardiac puncture, the serum was then prepared and assayed for β-glucuronidase activity using a commercial diagnostic kit sold by Sigma Chem. Co., St. Louis, MO.
# For the inhibition of the initiation stage, CGT was given by gavage in two doses (4.5 mmoles/kg/dose) at 3 hours and again at 0.5 hours before carcinogen administration. […] The concentrations of CGT were incorporated into the powdered chow diet. The blood samples were obtained 10 days after the initiation of the CGT feeding.
# DAGDL or GL (1.5 mmol/kg) in 1.0 ml of sesame oil, or vehicle only (controls) was administered to rats by stomach tube at zero time. […] The serum was prepared and assayed for β-glucuronidase activity using a commercial diagnostic kit sold by Sigma Chemical Company, St. Louis, MO. The assay is based on the hydrolysis of phenolphthalein-glucuronide and quantitation of phenolphtalein in alkaline medium at 550 nm.
# [3] = in vivo; cited from earlier work
# bladder tumor = settings: rat, in vivo; cited from earlier work
# bladder tumors = settings: human, in vivo; cited from earlier work
# β-glucuronidase = settings: cited from earlier work
# [4] = rat, in vivo, iv, cited from earlier work
# [5] = equilibrated aqueous solution; cited from earlier work
Compound,Treatment -I: total concentration of 60 kd factor induced by the carcinogen (60 kd oncofetal protein [1]),Plasma concentration of the 60 kd protein at 21 days post-treatment with PAH (60 kd oncofetal protein [1]),other results
"CCCCN(CCCC)N=O [N--Nitrosodibutylamine, N-nitroso-N,N-dibutylamine]",5.44,,
"Cc1c2ccccc2c(C)c2c1ccc1ccccc12 [7,12-Dimethylbenz[a]anthracene, 7,12-dimethylbenz[a]anthracene]",,6.42,"overall inhibition of PAH-mediated carcinogenesis, as inhibition of 60 kd oncofetal protein induction (60 kd oncofetal protein [2]): 75%"
"CC(=O)Nc1ccc2c(c1)Cc1ccccc1-2 [2-Acetyalaminofluorine, 2-acetylaminofluorene]",5.11,,
"CN(N=O)C(N)=O [N--Nitrosomethylurea, N-nitroso-N-methylurea]",4.69,,"60 kd factor in plasma, MNU without inhibitor (60 kd oncofetal protein [1]): 4.6"
c1cc2ccc3cccc4ccc(c1)c2c34 [Pyrene],,0.0,
c1ccc2cc3ccccc3cc2c1 [Anthracene],,0.0,
"Nc1ccc2ccccc2c1 [2-Naphthylamine, 2-naphthylamine]",3.29,,
"CCN(CC)N=O [N--Nitrosodiethylamine, N-nitroso-N, N-diethylamine]",4.21,,
"Cc1c2ccccc2c(C)c2c1ccc1ccc(F)cc12 [2-Fluoro-7,12-dimethylbenz[a]anthracene]",,0.0,
"CN(C)N=O [N--Nitrosodimethylamine, N-nitroso-N,N-dimethylamine]",3.40,,
"O=C(O)[C@@H](O)[C@H]1OC(=O)[C@H](O)[C@H]1O [GL, D-glucaro-1,4-lactone, reference compound]",,,prevention of bladder cancer induced with 2-naphthylamine (bladder cancer): without any success; depression of serum β-glucuronidase (serum β-glucuronidase): approximately 50%; reversibility of inhibition by prolonged dialysis (serum β-glucuronidase): could be reversed; time-course of serum β-glucuronidase inhibition (serum β-glucuronidase): only a transient inhibition; also recorded: transient nature of the inhibition; administered compound excreted unchanged in urine [3]: less than 50%; rate of metabolism and excretion [3]: rapidly metabolized; effect on 2-acetylaminofluorene carcinogenesis (bladder tumor): unsuccessful; clinical effect in prevention of bladder tumors (bladder tumors): failed to show any clear beneficial effects; inhibition of β-glucuronidase in vitro (β-glucuronidase): potent inhibitor
c1ccc2c(c1)cc1ccc3cccc4ccc2c1c34 [Benzo[a]pyrene],7.73,7.73,"dose excreted in bile ([4]; 6 h): ~60%; biliary metabolites being glucuronides [4]: 40%; overall inhibition of PAH-mediated carcinogenesis, as inhibition of 60 kd oncofetal protein induction (60 kd oncofetal protein [2]): 75%"
c1ccc2c(c1)c1cccc3ccc4cccc2c4c31 [Benzo[e]pyrene],,3.37,
"O=[N+]([O-])c1ccc2ccc3cccc4ccc1c2c34 [1-Nitropyrene, reference compound]",,5.30 units,"overall inhibition of PAH-mediated carcinogenesis, as inhibition of 60 kd oncofetal protein induction (60 kd oncofetal protein [2]): 50%"
c1ccc2cc3c(ccc4ccccc43)cc2c1 [Benz[a]anthracene],,4.92,
O=C(O)[C@@H](O)[C@@H](O)[C@H](O)[C@@H](O)C(=O)O [glucarate],,,fraction of glucarate converted to GL [5]: approximately one-third
"COc1cc2c(c3oc(=O)c4c(c13)CCC4=O)[C@@H]1C=CO[C@@H]1O2 [Aflatoxin B1, aflatoxin B1]",4.37,,
"COc1cc2c(c3oc(=O)c4c(c13)CCOC4=O)[C@@H]1CCO[C@@H]1O2 [Aflatoxin G2, aflatoxin G2]",3.80,,
"C=CCc1ccc2c(c1)OCO2 [Safrole, safrole]",5.90,,
c1ccc2c(c1)Cc1ccccc1-2 [Fluorene],,0.0 units,
"O=C(O)[C@@H](O)[C@@H](O)[C@H](O)[C@@H](O)C(=O)[O-].[K+] [PGT, potassium hydrogen D-glucarate]",,,Percent Inhibition of the induction of the 60 kd factor (60 kd oncofetal protein [2]): 65%; Treatment +I: total concentration of 60 kd factor (60 kd oncofetal protein [2]): 2.25; time-course of serum β-glucuronidase inhibition (serum β-glucuronidase): prolonged inhibition
"Cc1ccc2cc3c(ccc4ccccc43)c3c2c1CC3 [3-Methylcholanthrene, 3-methyl-1,2-dihydrobenz[j]aceanthrylene]",5.62,6.82,"overall inhibition of PAH-mediated carcinogenesis, as inhibition of 60 kd oncofetal protein induction (60 kd oncofetal protein [2]): 50%"
"CCN(N=O)C(N)=O [N--Nitrosoethylurea, N-nitroso-N-ethylurea]",4.50,,
"CNNC [1,2-Dimethylhydrazine, 1,2-dimethylhydrazine]",5.40,,
